{"source": "patent US5260327A", "about": "“Methods for inhibiting the proliferation of brain and hepatic metastases by using lonidamine” (priority 1992, dated 1993)", "key": {"[1]": {"system": "multicellular HeLa spheroids", "assay": "Radio-enhancement in multicellular tumor spheroids (growth delay)", "assay_type": "cell-based, human", "excerpt": "Based on these studies, and on supportive studies in mice receiving the drug chronically,Kim et al. proposed that optimal use of lonidamine would be to employ it both during and, in a prolonged exposure, after the course of radiation therapy.\nThe drug's radio-enhancing effects in multicellular tumor spheroids (MTS) was examined assessing growth delay following radiation with and without the drug."}, "[2]": {"system": "HeLa cells", "assay": "Trimodality therapy in HeLa monolayer cell cultures", "assay_type": "cell-based, human", "excerpt": "Lonidamine was present only during heating.\n(§1) The effect of trimodality therapy has been examined in HeLa monolayer cell cultures and in the transplanted Meth-A fibrosarcoma. The studies in HeLa cell cultures used a single radiation fraction, and prompt subculture for clonal analysis, conditions which would reduce any heat or drug-induced effect on potential lethal damage. […] In vivo comparative assessment of trimodality therapy versus single and bimodality combination was made in the oxic Meth-A fibrosarcoma. The trimodality regimen consisted of lonidamine (50 mg/kg/day chronically throughout the period of observation), plus radiation therapy (6 Gy×5), and hyperthermia (41.2° C.×65 min pre radiation therapy on days 1 and 4 of therapy); the results are presented in FIG. 14."}, "[3]": {"system": "Meth-A fibrosarcoma", "assay": "In vivo trimodality therapy versus single and bimodality therapy, tumor growth delay", "design": "species or system mice", "conditions": "lonidamine 50 mg/kg/day", "excerpt": "as §1"}, "[4]": {"system": "Meth-A fibrosarcoma", "assay": "In vivo therapy with lonidamine, radiation and hyperthermia, tumor control", "design": "species or system BALB/cBy mice", "procedure": "Localized radiation and hyperthermia was performed on BALB/cBy mice when tumors were 0.7+/-0.1 cucm and tumor analysis endpoints have been previously described. (26) Tumor control was defined as non-palpable tumor at 60 days. Waterbath temperatures were 41.7° C./65 minutes and […]/65 minutes×2 fractions. […] (Bailey, 26 g thermocouple) below circulated water bath temperatures. Separation between the two hyperthermia treatments was 72 hours.\nLonidamine administration at hour pre-radiation and immediately hyperthermia and was based on serum pharmacokinetic and radiation studies (25). Animals were primed at 100 mg/kg. s.c., 3 days pre-radiation or hyperthermia. At the initiation of radiation or hyperthermia, animals were inoculated 50 mg/kg i.p. 1 hour before treatment and 50 mg/kg s.c. at 48 hours post treatment. Animals were maintained (100 mg/kg) during fractionation and post treatment until recurrence to initial volumes."}, "[5]": {"system": "hepatic metastases", "assay": "Phase I study of lonidamine + radiation therapy in patients with hepatic metastases", "assay_type": "in vivo, human (patients)", "procedure": "Lonidamine has received extensive clinical assessment both as a single agent and in combination with radiation therapy. […] In this dosage peak plasma levels of 5 to 15 μg/ml are attained; this is within the range that enhances the effect of radiation and hyperthermia in model systems (24-26, 30, 37 and 38). Two combined lonidamine+radiation therapy studies have been conducted in patients with extensive hepatic or brain metastases, respectively. […] The study in patients with brain metastases employed a randomized comparative design. Fifty eight patients were enrolled; 31 received lonidamine plus whole brain radiation therapy (WBRT) 300 cGy×10; 27 received WBRT alone."}, "[6]": {"conditions": "cited from earlier work"}, "[7]": {"system": "brain metastases", "conditions": "cited from earlier work"}, "[8]": {"system": "Stage 2-4 head and neck cancer", "conditions": "cited from earlier work"}, "[9]": {"system": "oxidative and glycolytic metabolism of mammalian cells", "conditions": "cited from earlier work"}, "[10]": {"system": "repair of radiation-induced potentially lethal damage (PLD)", "conditions": "cited from earlier work"}, "[11]": {"system": "spermatogenesis", "conditions": "in vivo; cited from earlier work"}, "[12]": {"system": "cell culture and murine tumor systems", "conditions": "cited from earlier work"}, "[13]": {"conditions": "single large daily dosage just prior to radiation"}}, "note": "“Also recorded” adds a separate entry of the source.", "data": [{"smiles": "O=C(O)c1nn(Cc2ccc(Cl)cc2Cl)c2ccccc12", "note": "[lonidamine]", "values": [{"measurement": "spheroid regrowth on lonidamine removal", "setting": "[1]; lonidamine removed 5 days following the last radiation exposure", "result": "begins to grow again when lonidamine is removed"}, {"measurement": "effect of fractionation of radiation dose on lonidamine effect", "setting": "[1]; multicellular HeLa spheroids, with radiation", "result": "increased by fractionation of the radiation dose; also recorded: increased with increasing dose fractionation"}, {"measurement": "cytotoxic effect on HeLa cells", "setting": "[2]; 37° C.", "result": "no cytotoxic effect on HeLa cells at 37 °C"}, {"measurement": "trimodality therapy vs radiation alone or bimodality therapy", "setting": "[2]; radiation therapy+lonidamine+mild hyperthermia (41.5° C.), single radiation fraction", "result": "clearly superior to radiation alone, or bimodality therapy"}, {"measurement": "day of tumor regrowth, trimodality therapy", "setting": "[3]; 6 Gy×5, 41.2° C.×65 min, regrowth not yet evident (radiation+hyperthermia: day 18)", "result": "> 32", "unit": "days"}, {"measurement": "tumor growth inhibition, radiation therapy+lonidamine, until day", "setting": "[3]; radiation 6 Gy×5 (radiation alone: day 11)", "result": 13, "unit": "days"}, {"measurement": "tumor regression, trimodality therapy", "setting": "[3]; radiation 6 Gy×5, hyperthermia 41.2° C.×65 min days 1 and 4", "result": "tumor regression to the point of non-palpability"}, {"measurement": "tumor response, lonidamine+hyperthermia vs hyperthermia alone and radiation+lonidamine vs radiation alone", "setting": "[4]; 41.2° C. or 41.7° C., fractionated", "result": "No differences were observed"}, {"measurement": "tumor response, lonidamine in adjuvant capacity", "setting": "[4]; adjuvant", "result": "Marginal differences in tumor response"}, {"measurement": "tri-modality therapy vs single or bi-modality treatments", "setting": "[4]; mouse, in vivo", "result": "consistently greater effect when compared to single or bi-modality treatments"}, {"measurement": "tumor control, tri-modality therapy (radiation+hyperthermia+lonidamine)", "setting": "[4]; non-palpable tumor at 60 days, 41.2° C. or 41.7° C.", "result": "50-56%"}, {"measurement": "tri-modality therapy vs radiation+hyperthermia at 41.2° C.", "setting": "[4]; tumor control", "result": "more effective than the tumor control for radiation+hyperthermia at 41.2 °C"}, {"measurement": "objective tumor regression", "setting": "[5]; lonidamine + radiation therapy 250 to 500 cGy ×5", "result": "five of fifteen"}, {"measurement": "patients with peak plasma levels ≥15 μg/ml, hepatic study", "setting": "[5]; [13]", "result": "11 of 17"}, {"measurement": "patient tolerance of the combination", "setting": "[5]; single large daily lonidamine dosage + radiation therapy", "result": "acceptable patient tolerance"}, {"measurement": "peak plasma levels", "setting": "[6]; 150 mg t.i.d.", "result": "5 to 15", "unit": "µg/mL"}, {"measurement": "tolerability", "setting": "[6]; 150 mg t.i.d.", "result": "well tolerated by most patients"}, {"measurement": "dose-limiting side effect", "setting": "[6]; clinical", "result": "skeletal muscle discomfort"}, {"measurement": "response or survival, lonidamine + WBRT vs WBRT alone", "setting": "[7]; WBRT 300 cGy×10", "result": "no significant difference in response or survival"}, {"measurement": "patients with peak plasma levels ≥15 μg/ml, WBRT study", "setting": "[7]; [13]", "result": "15 of 30"}, {"measurement": "disease free survival at 2 years (all patients)", "setting": "[8]; Radiation Therapy+Lonidamine 150 mg t.i.d. (placebo arm: 25%)", "result": 51, "unit": "%"}, {"measurement": "complete response rate", "setting": "[8]; Radiation Therapy+Lonidamine 150 mg t.i.d. (placebo arm: 58%)", "result": 69, "unit": "%"}, {"measurement": "remission duration", "setting": "[8]; Radiation Therapy+Lonidamine 150 mg t.i.d. vs placebo arm", "result": "longer in the lonidamine treated arm"}, {"measurement": "disease free survival rate versus radiation therapy", "setting": "[8]; lonidamine + radiation therapy, placebo-controlled randomized study", "result": "significantly increased the disease free survival rate"}, {"measurement": "effects on oxidative and glycolytic metabolism", "setting": "[9]", "result": "inhibitory effects on both oxidative and glycolytic metabolism of mammalian cells; also recorded: perturb energy metabolism in neoplastic cells"}, {"measurement": "inhibition of repair of radiation-induced potentially lethal damage", "setting": "[10]", "result": "inhibitor of repair of radiation-induced potentially lethal damage; also recorded: established inhibitor of repair of potential lethal damage"}, {"measurement": "inhibition of spermatogenesis", "setting": "[11]", "result": "potent inhibitor of spermatogenesis in mammals"}, {"measurement": "pH dependence of hyperthermia enhancing effects", "setting": "[12]; acidification of cell culture medium", "result": "greatly increased by acidification of the cell culture medium; also recorded: increased in cells under conditions of reduced extracellular pH"}, {"measurement": "radiation and hyperthermia enhancement", "setting": "[12]", "result": "radiation and hyperthermia enhancing agent in cell culture and murine tumor systems; also recorded: enhanced cytotoxic effects in cells treated either with radiation or hyperthermia"}]}]}
